From patent US20230312562A1, “TETRAHYDRO-3H-PYRAZOLO QUINOLONE AND TETRAHYDRO-3H-PYRROLO[3,2-F]QUINOLINE -CONTAINING COMPOUNDS AND USES THEREOF” (Purdue Research Foundation, priority 2020, published 2023)

System: MDA-MB-231
Experiment: Inhibition of MDA-MB-231 viability/growth at 1 μM, 72 h
Assay type: cell-based
Settings: 1 μM compound, 72 h incubation; for inhibition at 1 µM: Homo sapiens, MDA-MB-231

SMILES	inhibition at 1 µM	Inhibition of MDA-MB-231, result in words
c1n[nH]cc1[C@@H]1Nc2ccc3[nH]ncc3c2[C@H]2[C@@H]3CC[C@@H](C3)[C@H]21 (stereo in doubt) [Compound 2, 7-(1H-Pyrazol-4-yl)-6,7,7a,8,9,10,11,11a-octahydro-3H-8,11-methanopyrazolo[4,3-a]phenanthridine]	12%	
Fc1cnccc1[C@@H]1Nc2ccc3[nH]ncc3c2[C@H]2[C@@H]3CC[C@@H](C3)[C@H]21 (stereo in doubt) [Compound 7, 7-(3-Fluoropyridin-4-yl)-6,7,7a,8,9,10,11,11a-octahydro-3H-8,11-methanopyrazolo[4,3-a]phenanthridine]	11%	
Oc1ccc([C@@H]2Nc3ccc4[nH]ncc4c3[C@H]3C4CC[C@@H](C4)[C@@H]23)cc1 (stereo in doubt) [Compound 11, 4-(−6,7,7a,8,9,10,11,11a-Octahydro-3H-8,11-methanopyrazolo[4,3-a]phenanthridin-7-yl)phenol]	0%	
c1csc([C@@H]2Nc3ccc4[nH]ncc4c3[C@H]3[C@@H]4CC[C@@H](C4)[C@H]32)n1 (stereo in doubt) [Compound 3, 2-(6,7,7a,8,9,10,11,11a-Octahydro-3H-8,11-methanopyrazolo[4,3-a]phenanthridin-7-yl)thiazole]	13%	
Nc1nc2ccc([C@@H]3Nc4ccc5[nH]ncc5c4[C@H]4[C@@H]5CC[C@@H](C5)[C@H]43)cc2s1 [Compound 29, 6-(6,7,7a,8,9,10,11,11a-Octahydro-3H-8,11-methanopyrazolo[4,3-a]phenanthridin-7-yl)benzo[d]thiazol-2-amine]	41%	
Cn1cc([C@@H]2Nc3ccc4[nH]ncc4c3[C@H]3C4CC[C@@H](C4)[C@@H]23)c(C2CC2)n1 (stereo in doubt) [Compound 13, 7-(3-Cyclopropyl-1-methyl-1H-pyrazol-4-yl)-6,7,7a,8,9,10,11,11a-octahydro-3H-8,11-methanopyrazolo[4,3-a]phenanthridine]	0%	
Nc1n[nH]c2cc([C@@H]3Nc4c(Cl)cc5[nH]ncc5c4[C@H]4[C@@H]5CC[C@@H](C5)[C@H]43)ccc12 (stereo in doubt) [Compound 24, 6-(5-Chloro-6,7,7a,8,9,10,11,11a-octahydro-3H-8,11-methanopyrazolo[4,3-a]phenanthridin-7-yl)-1H-indazol-3-amine]		inactive
Nc1n[nH]c2ccc([C@@H]3Nc4ccc5[nH]nc(F)c5c4[C@H]4C5CC[C@@H](C5)[C@@H]34)cc12 (stereo in doubt) [Compound 21, 5-(1-Fluoro-6,7,7a,8,9,10,11,11a-octahydro-3H-8,11-methanopyrazolo[4,3-a]phenanthridin-7-yl)-1H-indazol-3-amine]		loss of potency
c1nc([C@@H]2Nc3ccc4[nH]ncc4c3[C@H]3[C@@H]4CC[C@@H](C4)[C@H]32)c[nH]1 (stereo in doubt) [Compound 4, 7-(1H-Imidazol-4-yl)-6,7,7a,8,9,10,11,11a-octahydro-3H-8,11-methanopyrazolo[4,3-a]phenanthridine]	14%	
c1cc2[nH]ncc2cc1[C@@H]1Nc2ccc3[nH]ncc3c2[C@H]2C3CC[C@@H](C3)[C@@H]12 (stereo in doubt) [Compound 16, 7-(1H-Indazol-5-yl)-6,7,7a,8,9,10,11,11a-octahydro-3H-8,11-methanopyrazolo[4,3-a]phenanthridine]	78%	
Cn1cc([C@@H]2Nc3ccc4[nH]ncc4c3[C@H]3[C@@H]4CC[C@@H](C4)[C@H]32)c(C(F)(F)F)n1 (stereo in doubt) [Compound 5, 7-(1-Methyl-3-(trifluoromethyl)-1H-pyrazol-4-yl)-6,7,7a,8,9,10,11,11a-octahydro-3H-8,11-methanopyrazolo[4,3-a]phenanthridine]	70%	
Nc1n[nH]c2ccc([C@@H]3Nc4ccc5[nH]ncc5c4[C@H]4OCCO[C@H]43)cc12 (stereo in doubt) [Compound 33, 5-(2,3,4a,6,9,11c-Hexahydro-5H-[1,4]dioxino[2,3-c]pyrazolo[4,3-f]quinolin-5-yl)-1H-indazol-3-amine]		no activity
FC(F)(F)c1ccc([C@@H]2Nc3ccc4[nH]ncc4c3[C@H]3[C@@H]4CC[C@@H](C4)[C@H]32)cc1 (stereo in doubt) [Compound 6, 7-(4-(Trifluoromethyl)phenyl)-6,7,7a,8,9,10,11,11a-octahydro-3H-8,11-methanopyrazolo[4,3-a]phenanthridine]	21%	
Cc1n[nH]c2ccc3c(c12)[C@H]1C2CC[C@@H](C2)[C@H]1[C@H](c1ccc2[nH]nc(N)c2c1)N3 (stereo in doubt) [Compound 20, 5-(1-Methyl-6,7,7a,8,9,10,11,11a-octahydro-3H-8,11-methanopyrazolo[4,3-a]phenanthridin-7-yl)-1H-indazol-3-amine]		loss of potency
NC(=O)c1ccc([C@@H]2Nc3ccc4[nH]ncc4c3[C@H]3C4CC[C@@H](C4)[C@@H]23)cc1 (stereo in doubt) [Compound 12, 4-(6,7,7a,8,9,10,11,11a-Octahydro-3H-8,11-methanopyrazolo[4,3-a]phenanthridin-7-yl)benzamide]	17%	
c1cc2cn[nH]c2cc1[C@@H]1Nc2ccc3[nH]ncc3c2[C@H]2C3CC[C@@H](C3)[C@@H]12 (stereo in doubt) [Compound 17, 7-(1H-Indazol-6-yl)-6,7,7a,8,9,10,11,11a-octahydro-3H-8,11-methanopyrazolo[4,3-a]phenanthridine]	91%	
COc1cnccc1[C@@H]1Nc2ccc3[nH]ncc3c2[C@H]2C3CC[C@@H](C3)[C@@H]12 (stereo in doubt) [Compound 15, 7-(3-Methoxypyridin-4-yl)-6,7,7a,8,9,10,11,11a-octahydro-3H-8,11-methanopyrazolo[4,3-a]phenanthridine]	12%	
Nc1n[nH]c2ccc(-c3nc4ccc5[nH]ncc5c4c4c3[C@H]3CC[C@@H]4C3)cc12 (stereo in doubt) [Compound 32, 5-(8,9,10,11-tetrahydro-3H-8,11-Methanopyrazolo[4,3-a]phenanthridin-7-yl)-1H-indazol-3-amine]	19%	
Nc1n[nH]c2ccc([C@@H]3Nc4ccc5[nH]nnc5c4[C@H]4C5CC[C@@H](C5)[C@@H]34)cc12 (stereo in doubt) [Compound 18, 5-(6,7,7a,8,9,10,11,11a-Octahydro-3H-8,11-methano[1,2,3]triazolo[4,5-a]phenanthridin-7-yl)-1H-indazol-3-amine]		loss in potency
c1csc([C@@H]2Nc3ccc4[nH]ncc4c3[C@H]3[C@@H]4CC[C@@H](C4)[C@H]32)c1 (stereo in doubt) [Compound 8, 7-(Thiophen-2-yl)-6,7,7a,8,9,10,11,11a-octahydro-3H-8,11-methanopyrazolo[4,3-a]phenanthridine]	13%	
Nc1ccc([C@@H]2Nc3ccc4[nH]ncc4c3[C@H]3[C@@H]4CC[C@@H](C4)[C@H]32)cn1 (stereo in doubt) [Compound 9, 5-(6,7,7a,8,9,10,11,11a-Octahydro-3H-8,11-methanopyrazolo[4,3-a]phenanthridin-7-yl)pyridin-2-amine]	18%	
Nc1n[nH]c2ccc([C@@H]3Nc4ccc5cn[nH]c5c4[C@H]4[C@@H]5CC[C@@H](C5)[C@H]43)cc12 (stereo in doubt) [Compound 31, 5-(6,7,7a,8,9,10,11,11a-Octahydro-1H-8,11-methanopyrazolo[3,4-a]phenanthridin-7-yl)-1H-indazol-3-amine]	94%	
N#Cc1cc([C@@H]2Nc3ccc4[nH]ncc4c3[C@H]3[C@@H]4CC[C@@H](C4)[C@H]32)ccc1F (stereo in doubt) [Compound 10, 2-Fluoro-5-(−6,7,7a,8,9,10,11,11a-octahydro-3H-8,11-methanopyrazolo[4,3-a]phenanthridin-7-yl)benzonitrile]	3%	
O=C(Nc1n[nH]c2ccc([C@@H]3Nc4ccc5[nH]ncc5c4[C@H]4[C@@H]5CC[C@@H](C5)[C@H]43)cc12)C1CC1 (stereo in doubt) [Compound 28, N-(5-(6,7,7a,8,9,10,11,11a-octahydro-3H-8,11-Methanopyrazolo[4,3-a]phenanthridin-7-yl)-1H-indazol-3-yl)cyclopropanecarboxamide]	31%	
Nc1n[nH]c2cc([C@@H]3Nc4c(Br)cc5[nH]ncc5c4[C@H]4[C@@H]5CC[C@@H](C5)[C@H]43)ccc12 (stereo in doubt) [Compound 25, 6-(5-Bromo-6,7,7a,8,9,10,11,11a-octahydro-3H-8,11-methanopyrazolo[4,3-a]phenanthridin-7-yl)-1H-indazol-3-amine]		inactive
Nc1n[nH]c2ccc([C@@H]3Nc4ccc5[nH]cnc5c4[C@H]4C5CC[C@@H](C5)[C@@H]34)cc12 (stereo in doubt) [Compound 19, 5-(6,7,7a,8,9,10,11,11a-Octahydro-3H-8,11-methanoimidazo[4,5-a]phenanthridin-7-yl)-1H-indazol-3-amine]		loss in potency
Nc1n[nH]c2cc([C@@H]3Nc4ccc5[nH]ncc5c4[C@H]4[C@@H]5CC[C@@H](C5)[C@H]43)ccc12 (stereo in doubt) [Compound 30, 6-(6,7,7a,8,9,10,11,11a-Octahydro-3H-8, 11-methanopyrazolo[4,3-a]phenanthridin-7-yl)-1H-indazol-3-amine]	29%	
FC(F)(F)c1n[nH]cc1[C@@H]1Nc2ccc3[nH]ncc3c2[C@H]2[C@@H]3CC[C@@H](C3)[C@H]21 (stereo in doubt) [Compound 1, 7-(3-(Trifluoromethyl)-1H-pyrazol-4-yl)-6,7,7a,8,9,10,11,11a-octahydro 3H-8,11-methanopyrazolo[4,3-a]phenanthridine]	5%	
